Experiments:
galium = assay: Test C postemergence; assay type: in vivo, Galium aparine
Excerpt: (§1) Seeds of plant species selected from blackgrass (Alopecurus myosuroides), ryegrass, Italian (Italian ryegrass, Lolium multiflorum), wheat (winter wheat, Triticum aestivum), galium (catchweed bedstraw, Galium aparine), corn (Zea mays), crabgrass, large (large crabgrass, Digitaria sanguinalis), foxtail, giant, (giant foxtail, Setaria faberii), johnsongrass (Sorghum halepense), lambsquarters (Chenopodium album), morningglory (Ipomoea coccinea), nutsedge, yellow (yellow nutsedge, Cyperus esculentus), pigweed (Amaranthus retroflexus), ragweed (common ragweed, Ambrosia elatior), soybean (Glycine max), barnyardgrass (Echinochloa crus-galli), oilseed rape (Brassica napus), waterhemp (common waterhemp, Amaranthus rudis), and velvetleaf (Abutilon theophrasti) were planted into a blend of loam soil and sand and treated preemergence with test chemicals formulated in a non-phytotoxic solvent mixture which included a surfactant. At the same time, plants selected from these crop and weed species and also chickweed (common chickweed, Stellaria media), oat, wild (wild oat, Avena fatua), and kochia (Kochia scoparia), were planted in pots containing Sunshine Redi-Earth® planting medium comprising spaghnum peat moss, vermiculite, starter nutrients and dolomitic limestone and treated with postemergence applications of test chemicals formulated in the same manner. Plants ranged in height from 2 to 18 cm (1- to 4-leaf stage) for postemergence treatments. […] A dash (-) response means no test result.

rice = assay: Test B flooded paddy test; assay type: in vivo, Oryza sativa; details: 250 g ai/ha, applied to paddy water at 2-leaf stage, visual rating after 13 to 15 d, scale 0 (no effect) to 100 (complete control)
Method in brief: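 Pots were flooded to 3 cm above the soil at treatment, and compounds were applied directly into the paddy water. That depth was held throughout. After 13 to 15 d in a greenhouse, plants were rated visually against untreated controls.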

pigweed [1] = assay: Test A preemergence; assay type: in vivo, Amaranthus retroflexus; details: 0 to 100 scale (0 no effect, 100 complete control)
Method in brief: (§2)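 Test chemicals, formulated in a surfactant-containing non-phytotoxic solvent mixture, are applied either as a directed soil spray to newly planted seeds or as a postemergence application to plants at the one- to two-leaf stage (2–10 cm). All plants grow in a loam soil and sand blend.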

lambsquarters = assay: Test C postemergence; assay type: in vivo, Chenopodium album
Excerpt: as §1

foxtail, giant = assay: Test A preemergence; assay type: in vivo, Setaria faberii; details: 0 to 100 scale (0 no effect, 100 complete control)
Method in brief: as §2

chickweed = assay: Test C postemergence; assay type: in vivo, Stellaria media
Excerpt: as §1

oat, wild = assay: Test C postemergence; assay type: in vivo, Avena fatua
Excerpt: as §1

pigweed [2] = assay: Test C postemergence; assay type: in vivo, Amaranthus retroflexus
Excerpt: as §1

johnsongrass = assay: Test C postemergence; assay type: in vivo, Sorghum halepense
Excerpt: as §1

soybean = assay: Test C postemergence; assay type: in vivo, Glycine max
Excerpt: as §1

blackgrass = assay: Test C postemergence; assay type: in vivo, Alopecurus myosuroides
Excerpt: as §1

wheat (winter wheat) = assay: Test C postemergence; assay type: in vivo, Triticum aestivum
Excerpt: as §1

With `COc1nc(-c2ccc(C(F)(F)F)cc2)nn1Cc1ccnc(C(F)(F)F)c1` [Compound 25] the “Plant response rating (scale of 0 to 100 where 0 is no effect and 100 is complete control)” value (galium; 31 g ai/ha) was 80, the “Plant response rating (scale of 0 to 100 where 0 is no effect and 100 is complete control)” value (galium; 62 g ai/ha) was 90 and the “Plant response rating (scale of 0 to 100 where 0 is no effect and 100 is complete control)” value (galium; 125 g ai/ha) was 90. The “Plant response rating (scale of 0 to 100 where 0 is no effect and 100 is complete control)” value (galium; 250 g ai/ha) was 90, the “Plant response rating, Rice, Flood” value (rice) was 25 and the “Plant response rating, Pigweed” value (pigweed [1]; 31 g ai/ha) was 90. The “Plant response rating, Pigweed” value (pigweed [1]; 125 g ai/ha) was 100, the “Plant response rating (scale of 0 to 100 where 0 is no effect and 100 is complete control)” value (lambsquarters; 31 g ai/ha) was 90 and the “Plant response rating (scale of 0 to 100 where 0 is no effect and 100 is complete control)” value (lambsquarters; 62 g ai/ha) was 90. The “Plant response rating (scale of 0 to 100 where 0 is no effect and 100 is complete control)” value (lambsquarters; 125 g ai/ha) was 98, the “Plant response rating (scale of 0 to 100 where 0 is no effect and 100 is complete control)” value (lambsquarters; 250 g ai/ha) was 98 and the “Plant response rating, Foxtail, Giant” value (foxtail, giant; 31 g ai/ha) was 70. The “Plant response rating, Foxtail, Giant” value (foxtail, giant; 125 g ai/ha) was 100, the “Plant response rating (scale of 0 to 100 where 0 is no effect and 100 is complete control)” value (chickweed; 31 g ai/ha) was 50 and the “Plant response rating (scale of 0 to 100 where 0 is no effect and 100 is complete control)” value (chickweed; 62 g ai/ha) was 90. For the same molecule, the “Plant response rating (scale of 0 to 100 where 0 is no effect and 100 is complete control)” value (chickweed; 125 g ai/ha) was 85, the “Plant response rating (scale of 0 to 100 where 0 is no effect and 100 is complete control)” value (chickweed; 250 g ai/ha) was 100 and the “Plant response rating (scale of 0 to 100 where 0 is no effect and 100 is complete control)” value (oat, wild; 31 g ai/ha) was 10. The “Plant response rating (scale of 0 to 100 where 0 is no effect and 100 is complete control)” value (oat, wild; 62 g ai/ha) was 20, the “Plant response rating (scale of 0 to 100 where 0 is no effect and 100 is complete control)” value (oat, wild; 125 g ai/ha) was 25 and the “Plant response rating (scale of 0 to 100 where 0 is no effect and 100 is complete control)” value (oat, wild; 250 g ai/ha) was 35. The “Plant response rating (scale of 0 to 100 where 0 is no effect and 100 is complete control)” value (pigweed [2]; 31 g ai/ha) was 100, the “Plant response rating (scale of 0 to 100 where 0 is no effect and 100 is complete control)” value (pigweed [2]; 62 g ai/ha) was 100 and the “Plant response rating (scale of 0 to 100 where 0 is no effect and 100 is complete control)” value (pigweed [2]; 125 g ai/ha) was 100. The “Plant response rating (scale of 0 to 100 where 0 is no effect and 100 is complete control)” value (pigweed [2]; 250 g ai/ha) was 100, the “Plant response rating (scale of 0 to 100 where 0 is no effect and 100 is complete control)” value (johnsongrass; 31 g ai/ha) was 10 and the “Plant response rating (scale of 0 to 100 where 0 is no effect and 100 is complete control)” value (johnsongrass; 62 g ai/ha) was 20. For the same molecule, the “Plant response rating (scale of 0 to 100 where 0 is no effect and 100 is complete control)” value (johnsongrass; 125 g ai/ha) was 20, the “Plant response rating (scale of 0 to 100 where 0 is no effect and 100 is complete control)” value (johnsongrass; 250 g ai/ha) was 30 and the “Plant response rating (scale of 0 to 100 where 0 is no effect and 100 is complete control)” value (soybean; 31 g ai/ha) was 45. The “Plant response rating (scale of 0 to 100 where 0 is no effect and 100 is complete control)” value (soybean; 62 g ai/ha) was 70, the “Plant response rating (scale of 0 to 100 where 0 is no effect and 100 is complete control)” value (soybean; 125 g ai/ha) was 50 and the “Plant response rating (scale of 0 to 100 where 0 is no effect and 100 is complete control)” value (soybean; 250 g ai/ha) was 65. For the same molecule, the “Plant response rating (scale of 0 to 100 where 0 is no effect and 100 is complete control)” value (blackgrass; 31 g ai/ha) was 5, the “Plant response rating (scale of 0 to 100 where 0 is no effect and 100 is complete control)” value (blackgrass; 62 g ai/ha) was 10 and the “Plant response rating (scale of 0 to 100 where 0 is no effect and 100 is complete control)” value (blackgrass; 125 g ai/ha) was 30. For the same molecule, the “Plant response rating (scale of 0 to 100 where 0 is no effect and 100 is complete control)” value (blackgrass; 250 g ai/ha) was 60, the “Plant response rating (scale of 0 to 100 where 0 is no effect and 100 is complete control)” value (wheat (winter wheat); 31 g ai/ha) was 5 and the “Plant response rating (scale of 0 to 100 where 0 is no effect and 100 is complete control)” value (wheat (winter wheat); 62 g ai/ha) was 5. For the same molecule, the “Plant response rating (scale of 0 to 100 where 0 is no effect and 100 is complete control)” value (wheat (winter wheat); 125 g ai/ha) was 5 and the “Plant response rating (scale of 0 to 100 where 0 is no effect and 100 is complete control)” value (wheat (winter wheat); 250 g ai/ha) was 10.
